In general, pKi refers to −log10 of the Ki, conventionally taken in molar units. A word on the Vd: it is the apparent volume that relates the amount in the body to the concentration in plasma or blood. As a reminder, the AUC is concentration integrated over time. Usually half-life stands for how long it takes for the measured level to halve. In general, Kb refers to the affinity of an antagonist, worked out from how it opposes an agonist. The term pEC50 denotes −log10 of the EC50, conventionally taken in molar units. The term pIC50 denotes −log10 of the IC50, conventionally taken in molar units. Broadly, the Cmax is the highest concentration seen after dosing. As usually defined, the clearance is the rate of elimination divided by the concentration. As a reminder, the bioavailability is dose-corrected exposure relative to a reference, in per cent. What is called ED50 is the dose at which the effect has come halfway, by size or by number of responders.

For data set [1], the target named is Histamine H3 receptor (Rattus norvegicus, UniProt Q9QYN8). Nature of the data set: Displacement of [3H]NAMH from rat histamine H3 receptor expressed in CHO cells. Format: cell-based. (In general: Loss of bound radioactivity is the signal in a displacement assay; it reports binding, not function.)
Sequence of Histamine H3 receptor (Rattus norvegicus, UniProt Q9QYN8) (Q9QYN8 whole entry): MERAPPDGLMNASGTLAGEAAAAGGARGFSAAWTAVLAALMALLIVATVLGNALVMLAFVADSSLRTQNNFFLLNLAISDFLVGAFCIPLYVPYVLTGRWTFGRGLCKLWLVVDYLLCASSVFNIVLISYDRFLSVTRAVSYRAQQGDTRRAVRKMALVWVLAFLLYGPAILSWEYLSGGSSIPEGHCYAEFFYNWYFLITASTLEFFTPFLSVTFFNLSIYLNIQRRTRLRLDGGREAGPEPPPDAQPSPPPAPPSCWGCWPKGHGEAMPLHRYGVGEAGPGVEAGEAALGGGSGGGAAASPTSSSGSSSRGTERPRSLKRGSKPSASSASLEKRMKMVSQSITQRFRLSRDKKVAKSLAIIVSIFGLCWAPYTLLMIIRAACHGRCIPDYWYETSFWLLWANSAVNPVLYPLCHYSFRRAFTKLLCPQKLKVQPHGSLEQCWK
In data set [2] the target is T1, Histamine H3 receptor (Homo sapiens, UniProt Q9Y5N1). Nature of the data set: Displacement of [3H]NAMH from human histamine H3 receptor expressed in CHO cells. Format: cell-based.
T1 sequence (Q9Y5N1 whole entry): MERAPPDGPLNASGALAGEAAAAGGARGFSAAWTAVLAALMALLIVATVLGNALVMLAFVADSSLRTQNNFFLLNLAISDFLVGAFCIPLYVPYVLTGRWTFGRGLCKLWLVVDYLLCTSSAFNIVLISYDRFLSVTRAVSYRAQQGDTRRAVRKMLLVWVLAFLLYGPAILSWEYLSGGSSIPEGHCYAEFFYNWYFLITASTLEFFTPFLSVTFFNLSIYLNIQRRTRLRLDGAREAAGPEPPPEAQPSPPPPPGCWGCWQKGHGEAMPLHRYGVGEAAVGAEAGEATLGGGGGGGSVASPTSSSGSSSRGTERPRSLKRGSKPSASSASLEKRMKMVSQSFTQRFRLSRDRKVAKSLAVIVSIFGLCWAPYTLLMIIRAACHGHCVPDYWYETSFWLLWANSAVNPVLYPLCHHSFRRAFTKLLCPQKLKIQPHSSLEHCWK
A short description of data set [3]: Volume of distribution in rat at […], iv. Format: ADME, organism-based. The following applies: in vivo.
A short description of data set [4]: AUC in rat at 5 mg/kg, po. Format: ADME, organism-based. On the set-up: dose 5 mg/kg, route oral. The following applies: plasma.
The nature of data set [5]: Half life in monkey liver microsomes. The format is ADME, Macaca mulatta, Microsome. The following applies: rhesus monkey. In general terms: Microsomes from liver hold many membrane-bound enzymes, among them those of drug oxidation.
The target in data set [6] is T1, Histamine H3 receptor. The data set is described as follows: Antagonist activity at human histamine H3 receptor assessed as inhibition of [35S]-GTPgammaS binding. The format is functional.
The nature of data set [7]: Half life in human liver microsomes. Format: ADME, Microsome.
Data set [8] deals with T1, Histamine H3 receptor. Nature of the data set: Inverse agonist activity at human histamine H3 receptor by [35S]-GTPgammaS binding assay. Format: functional. (GTPγS resists hydrolysis and so accumulates on activated G proteins.)
Data set [9] has as its target T2, Cytochrome P450 1A2 (Homo sapiens, UniProt P05177).
T2 sequence (P05177 whole entry): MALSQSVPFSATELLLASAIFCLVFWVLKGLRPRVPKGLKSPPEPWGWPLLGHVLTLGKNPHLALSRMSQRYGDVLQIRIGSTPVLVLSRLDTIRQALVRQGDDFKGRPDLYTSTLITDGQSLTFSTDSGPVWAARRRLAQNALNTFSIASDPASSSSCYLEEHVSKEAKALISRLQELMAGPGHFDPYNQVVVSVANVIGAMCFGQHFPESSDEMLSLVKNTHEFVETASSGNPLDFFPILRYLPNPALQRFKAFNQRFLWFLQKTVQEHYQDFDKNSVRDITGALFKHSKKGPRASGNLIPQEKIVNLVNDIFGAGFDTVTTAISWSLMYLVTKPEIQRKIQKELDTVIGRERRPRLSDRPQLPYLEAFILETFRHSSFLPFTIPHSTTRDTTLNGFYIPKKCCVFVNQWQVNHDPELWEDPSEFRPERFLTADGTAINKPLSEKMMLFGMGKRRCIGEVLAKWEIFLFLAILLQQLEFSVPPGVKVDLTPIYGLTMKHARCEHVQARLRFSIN
The data set is described as follows: Inhibition of CYP1A2. The format is ADME.

The target in data set [10] is Cytochrome P450 2C9 (Homo sapiens, UniProt P11712). Nature of the data set: Inhibition of CYP2C9. The format is ADME.
Sequence of Cytochrome P450 2C9 (P11712 whole entry): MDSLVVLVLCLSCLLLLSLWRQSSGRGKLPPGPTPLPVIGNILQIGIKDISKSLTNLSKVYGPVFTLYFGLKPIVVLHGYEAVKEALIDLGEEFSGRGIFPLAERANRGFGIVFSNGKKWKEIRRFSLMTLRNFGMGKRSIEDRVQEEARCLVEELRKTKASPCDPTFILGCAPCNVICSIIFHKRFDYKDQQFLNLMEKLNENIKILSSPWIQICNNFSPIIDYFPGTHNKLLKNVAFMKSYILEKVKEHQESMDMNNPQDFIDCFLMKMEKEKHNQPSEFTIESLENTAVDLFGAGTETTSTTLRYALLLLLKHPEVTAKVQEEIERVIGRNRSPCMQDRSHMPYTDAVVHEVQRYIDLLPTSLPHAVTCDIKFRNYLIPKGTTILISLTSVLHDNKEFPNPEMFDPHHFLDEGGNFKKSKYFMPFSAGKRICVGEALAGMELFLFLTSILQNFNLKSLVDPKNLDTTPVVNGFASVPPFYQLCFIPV
Data set [11] concerns the target Cytochrome P450 2C19 (Homo sapiens, UniProt P33261). The data set is described as follows: Inhibition of CYP2C19. Format: ADME.
For data set [12], the target named is Cytochrome P450 3A4 (Homo sapiens, UniProt P08684). The data set is described as follows: Inhibition of CYP3A4. Format: ADME.
Sequence of Cytochrome P450 3A4 (P08684 whole entry): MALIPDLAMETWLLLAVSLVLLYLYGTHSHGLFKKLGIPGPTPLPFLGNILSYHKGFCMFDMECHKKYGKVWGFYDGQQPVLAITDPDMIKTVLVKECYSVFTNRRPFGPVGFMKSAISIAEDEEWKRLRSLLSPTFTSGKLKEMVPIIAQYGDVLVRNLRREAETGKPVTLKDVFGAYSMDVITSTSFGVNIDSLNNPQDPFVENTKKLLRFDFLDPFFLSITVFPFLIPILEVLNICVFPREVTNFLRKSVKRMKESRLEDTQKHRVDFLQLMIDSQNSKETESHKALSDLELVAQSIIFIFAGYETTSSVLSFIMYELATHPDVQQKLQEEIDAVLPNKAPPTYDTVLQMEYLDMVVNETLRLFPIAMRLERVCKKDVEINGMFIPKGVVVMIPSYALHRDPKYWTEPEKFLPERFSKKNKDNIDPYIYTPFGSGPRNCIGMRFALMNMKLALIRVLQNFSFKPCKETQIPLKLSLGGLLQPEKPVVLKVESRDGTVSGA
A short description of data set [13]: Cmax in rat at 5 mg/kg, po. The format is ADME, organism-based. On the set-up: dose 5 mg/kg, route oral. The following applies: in vivo.
The nature of data set [14]: Half life in mouse liver microsomes. The format is ADME, Microsome.
The nature of data set [15]: Half life in rat at […], iv. The format is ADME, organism-based. The following applies: in vivo.
The subject of data set [16] is Rattus norvegicus. The data set is described as follows: Wake promoting activity in EEG/EMG Sprague-Dawley rat model at 10 to 30 mg/kg, ip measured after 9 hrs. Format: functional, organism-based.
Data set [17] in a line: Clearance in rat at […], iv. The format is ADME, organism-based. The following applies: in vivo.
Data set [18] addresses Cytochrome P450 2D6 (Homo sapiens, UniProt P10635). Nature of the data set: Inhibition of CYP2D6. Format: ADME.
A short description of data set [19]: Ratio of drug level in brain to plasma in rat at 5 mg/kg, po measured after 6 hrs. The format is ADME, organism-based. Also on record: dose 5 mg/kg, route oral. The following applies: read-out: BPR.
The nature of data set [20]: Oral bioavailability in rat at 5 mg/kg. The format is ADME, organism-based. The following applies: in vivo.
A short description of data set [21]: Half life in dog liver microsomes. The format is ADME, Canis lupus familiaris, Microsome.
Data set [22] can be described thus: Half life in rat liver microsomes. The format is ADME, Microsome.
The test system of data set [23] is Rattus norvegicus. The data set is described as follows: Inhibition of RAMH-induced dipsogenia in ip dosed rat. The format is functional.

The structures appear in SMILES notation. pEC50, pIC50, pKi: −log10 of the molar value. Activity calls are given as the source filed them. The calls are words filed in the database; no cut-off is given here.

Sequence of Cytochrome P450 2C19 (P33261 whole entry): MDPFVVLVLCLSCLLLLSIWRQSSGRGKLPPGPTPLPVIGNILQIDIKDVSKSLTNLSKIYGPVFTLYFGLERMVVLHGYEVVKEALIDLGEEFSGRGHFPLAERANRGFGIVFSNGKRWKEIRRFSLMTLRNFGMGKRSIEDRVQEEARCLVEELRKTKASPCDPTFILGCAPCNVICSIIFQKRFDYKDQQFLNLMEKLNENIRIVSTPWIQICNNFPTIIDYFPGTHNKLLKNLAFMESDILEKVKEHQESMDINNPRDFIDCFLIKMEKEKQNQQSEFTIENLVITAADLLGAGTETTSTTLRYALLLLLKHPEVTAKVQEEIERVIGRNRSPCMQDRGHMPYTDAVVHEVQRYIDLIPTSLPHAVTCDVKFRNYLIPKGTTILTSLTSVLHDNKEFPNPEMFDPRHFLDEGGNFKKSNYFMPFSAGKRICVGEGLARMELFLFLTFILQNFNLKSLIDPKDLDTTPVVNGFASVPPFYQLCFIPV
Sequence of Cytochrome P450 2D6 (P10635 whole entry): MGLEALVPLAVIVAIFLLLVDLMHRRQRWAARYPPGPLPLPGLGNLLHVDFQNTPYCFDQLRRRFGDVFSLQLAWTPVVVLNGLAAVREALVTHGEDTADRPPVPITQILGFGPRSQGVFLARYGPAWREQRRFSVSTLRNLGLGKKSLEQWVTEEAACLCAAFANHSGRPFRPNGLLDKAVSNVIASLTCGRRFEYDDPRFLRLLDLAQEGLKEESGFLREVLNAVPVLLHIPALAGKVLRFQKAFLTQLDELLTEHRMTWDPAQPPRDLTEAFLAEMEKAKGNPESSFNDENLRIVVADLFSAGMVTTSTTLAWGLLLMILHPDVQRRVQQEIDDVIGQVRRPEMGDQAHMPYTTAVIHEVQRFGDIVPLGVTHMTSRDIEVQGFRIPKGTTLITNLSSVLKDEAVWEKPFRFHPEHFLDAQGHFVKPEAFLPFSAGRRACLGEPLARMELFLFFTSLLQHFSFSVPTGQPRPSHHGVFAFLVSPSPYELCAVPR

Turning to `CC(C)COC(=O)N1CCN(CC(=O)c2ccc(OCCCN3CCC[C@H]3C)cc2)CC1`, the negative logarithm of the Ki (pKi) in data set [1] is 7.92; in [2], 8.34.

`COC(=O)N1CCN(CC(=O)c2ccc(OCCCN3CCC[C@H]3C)cc2)CC1` came in with a Vd in data set [3] of 5.4 L/kg. This compound yielded an AUC in [4] of 619 ng·h/mL. Moreover, the pKi is 7.72 in data set [1] and 8.49 in data set [2]. The half-life was over 40 min in [5]; over 40 min in data set [7]; over 40 min in [14]; 156 min in [15]; over 40 min in data set [21]; over 40 min in data set [22]. Further, the antagonist equilibrium constant (Kb) in data set [6] is 0.4 nM. In data set [8], this compound had a pEC50 of 9.05. The pIC50 in [9], in data set [10], in [11], in [12] and in [18] was under 4.52 in each case. Further, in [13], the Cmax was determined as 128 ng/mL. Also, the result in data set [16] was inactive. Moreover, the clearance in data set [17] was determined as 24 mL/min/kg. The Kp at 6 h in data set [19] worked out at 4.3. This compound came in with a bioavailability in [20] of 22%. For the same compound, in data set [23], the 50% effect level (ED50) was put at a dose of 0.54 mg/kg. Moreover, the inhibition entry in [23] was “Dose-dependent effect”.

`C[C@@H]1CCCN1CCCOc1ccc(C(=O)CN2CCCC(F)(F)C2)cc1`: the pKi in data set [1] was 7.32; in [2] it was 8.05.

For `CC(=O)N1CCN(CC(=O)c2ccc(OCCCN3CCC[C@H]3C)cc2)CC1`, the pKi in data set [1] was 7.52; in [2] it was 8.55. The Kp at 6 h in [19] was under 0.6.

For `C[C@@H]1CCCN1CCCOc1ccc(C(=O)CN2CCN(C(=O)c3cccn3C)CC2)cc1`, the negative logarithm of the Ki (pKi) is 8.03 in data set [1] and 9.05 in data set [2]. Further, in data set [19], the Kp at 6 h was under 0.6.

Turning to `C[C@@H]1CCCN1CCCOc1ccc(C(=O)CN2CCN(C(=O)c3cc4ccccc4s3)CC2)cc1`, the figures for the negative logarithm of the Ki (pKi) in [1] and in data set [2] were 8.40 and 8.92, respectively.

`C[C@@H]1CCCN1CCCOc1ccc(C(=O)CN2CCN(C(=O)C(F)(F)F)CC2)cc1`: the negative logarithm of the Ki (pKi) in data set [1] is 7.77; in data set [2], 8.68.

For `C[C@@H]1CCCN1CCCOc1ccc(C(=O)CN2CCN(C(=O)c3cccs3)CC2)cc1`, the pKi in data set [1] is 8.05; in data set [2] it was 8.38.

As to `C[C@@H]1CCCN1CCCOc1ccc(C(=O)CN2CCN(C(=O)Oc3ccccc3)CC2)cc1`, the pKi in [1] is 8.16; in data set [2] it was 8.41.

As for `C[C@@H]1CCCN1CCCOc1ccc(C(=O)CN2CCN(C(=O)c3ccc(F)cc3)CC2)cc1`, the pKi is 8.24 in data set [1] and 9.22 in data set [2].

Source of the values: ChEMBL document CHEMBL2034887, “Substituted phenoxypropyl-(R)-2-methylpyrrolidine aminomethyl ketones as histamine-3 receptor inverse agonists” (Bioorg Med Chem Lett, 2012).
